In patent US7531529B2, “Imidazole derivatives” (Roche Palo Alto LLC, priority 2003, dated 2009):
pKi: −log10 of the molar value.

Target: T1, human mGlu5a receptor (Homo sapiens, UniProt P41594)
T1 construct: expressed in transfected cells; host or cells: EBNA cells (transient transfection); cell membrane homogenates
Experiment: [3H]MPEP competition binding on membranes of EBNA cells transfected with human mGlu5a receptor
Experimental: For binding experiments, cDNA encoding human mGlu5a receptor was transiently transfected into EBNA cells using a procedure described by Schlaeger and Christensen [Cytotechnology 15:1-13 (1998)]. Cell membrane homogenates were stored at −80° C. until the day of assay where upon they were thawed and resuspended and polytronised in 15 mM Tris-HCl, 120 mM NaCl, 100 mM KCl, 25 mM CaCl2, 25 mM MgCl2 binding buffer at pH 7.4 to a final assay concentration of 20 μg protein/ well.
Saturation isotherms were determined by addition of twelve [^3H]MPEP concentrations (0.04-100 nM) to these membranes (in a total volume of 200 μl) for 1 h at 4° C. Competition experiments were performed with a fixed concentration of [^3H]MPEP (2 nM) and IC50 values of test compounds evaluated using 11 concentrations (0.3-10,000 nM). Incubations were performed for 1 h at 4° C.
At the end of the incubation, membranes were filtered onto unifilter (96-well white microplate with bonded GF/C filter preincubated 1 h in 0.1% PEI in wash buffer, Packard BioScience, Meriden, Conn.) with a Filtermate 96 harvester (Packard BioScience) and washed 3 times with cold 50 mM Tris-HCl, pH 7.4 buffer. Nonspecific binding was measured in the presence of 10 μM MPEP. The radioactivity on the filter was counted (3 min) on a Packard Top-count microplate scintillation counter with quenching correction after addition of 45 μl of microscint 40 (Canberra Packard S.A., Zürich, Switzerland) and shaking for 20 min.
The Ki value is defined by the following formula: Ki=IC50/[1+L/Kd] in which the IC50 values are those concentrations of the compounds tested which cause 50% inhibition of the competing radioligand ([^3H]MPEP). L is the concentration of radioligand used in the binding experiment and the Kd value of the radioligand is empirically determined for each batch of membranes prepared.

T1 sequence (P41594 21-1180 isoform P41594-2 limits assumed): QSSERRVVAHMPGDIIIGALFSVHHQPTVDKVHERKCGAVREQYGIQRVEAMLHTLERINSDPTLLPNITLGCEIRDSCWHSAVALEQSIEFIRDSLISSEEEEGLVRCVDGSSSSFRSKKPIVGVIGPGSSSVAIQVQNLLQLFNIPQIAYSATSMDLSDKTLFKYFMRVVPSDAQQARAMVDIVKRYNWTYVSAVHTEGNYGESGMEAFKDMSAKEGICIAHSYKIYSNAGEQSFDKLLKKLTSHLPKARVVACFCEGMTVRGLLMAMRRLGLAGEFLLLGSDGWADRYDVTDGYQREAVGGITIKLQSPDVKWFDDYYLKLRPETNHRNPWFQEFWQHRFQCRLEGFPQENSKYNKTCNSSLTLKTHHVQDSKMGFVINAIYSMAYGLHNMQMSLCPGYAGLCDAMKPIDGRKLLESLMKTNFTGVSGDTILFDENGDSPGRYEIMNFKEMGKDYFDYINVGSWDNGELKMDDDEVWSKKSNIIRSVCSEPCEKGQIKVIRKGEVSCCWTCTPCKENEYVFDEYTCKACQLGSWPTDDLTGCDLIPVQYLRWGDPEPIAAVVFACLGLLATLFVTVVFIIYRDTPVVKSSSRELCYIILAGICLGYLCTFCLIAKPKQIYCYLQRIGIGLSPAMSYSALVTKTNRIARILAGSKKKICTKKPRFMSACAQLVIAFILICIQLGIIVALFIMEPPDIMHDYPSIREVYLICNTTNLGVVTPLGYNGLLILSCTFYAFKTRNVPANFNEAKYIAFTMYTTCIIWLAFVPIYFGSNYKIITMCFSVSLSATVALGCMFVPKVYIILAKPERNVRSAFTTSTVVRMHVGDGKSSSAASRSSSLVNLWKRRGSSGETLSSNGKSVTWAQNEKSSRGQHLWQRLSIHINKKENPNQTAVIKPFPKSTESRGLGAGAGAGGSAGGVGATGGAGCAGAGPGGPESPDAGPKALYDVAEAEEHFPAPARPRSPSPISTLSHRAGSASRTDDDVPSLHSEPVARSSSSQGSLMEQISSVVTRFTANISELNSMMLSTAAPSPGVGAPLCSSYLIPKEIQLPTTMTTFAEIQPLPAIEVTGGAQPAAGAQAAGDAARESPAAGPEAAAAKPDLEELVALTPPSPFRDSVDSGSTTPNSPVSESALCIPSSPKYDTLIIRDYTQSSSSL

Row | Compound | pKi
1 | Cc1nc(C#Cc2ccnc(F)c2)cn1-c1ccc(F)cc1 [Example 2, 2-Fluoro-4-[1-(4-fluoro-phenyl)-2-methyl-1H-imidazol-4-ylethynyl]-pyridine] | 7.64
2 | Cc1nc(C#Cc2ccnc(Cl)c2)cn1-c1cccc(C(F)(F)F)n1 [Example 5, 2-[4-(2-Chloro-pyridin-4-ylethynyl)-2-methyl-imidazol-1-yl]-6-trifluoromethyl-pyridine] | 7.68
3 | Cc1nc(C#Cc2ccnc(C#N)c2)cn1-c1ccc(F)cc1 [Example 10, 4-[1-(4-Fluoro-phenyl)-2-methyl-1H-imidazol-4-ylethynyl]-pyridine-2-carbonitrile] | 7.36
4 | Cc1ccnc(-n2cc(C#Cc3ccnc(Cl)c3)nc2C)n1 [Example 25, 2-[4-(2-Chloro-pyridin-4-ylethynyl)-2-methyl-imidazol-1-yl]-4-methyl-pyrimidine] | 7.40
5 | COc1ccnc(-n2cc(C#Cc3ccnc(Cl)c3)nc2C)n1 [Example 26, 2-[4-(2-Chloro-pyridin-4-ylethynyl)-2-methyl-imidazol-1-yl]-4-methoxy-pyrimidine] | 7.92
6 | Cc1nc(C#Cc2ccnc(Cl)c2)cn1-c1ccnc(C(F)(F)F)n1 [Example 28, 4-[4-(2-Chloro-pyridin-4-ylethynyl)-2-methyl-imidazol-1-yl]-2-trifluoromethyl-pyrimidine] | 7.64
7 | Cc1nc(C#Cc2ccnc(C#N)c2)cn1-c1ccc(Cl)nc1 [Example 31, 4-[1-(6-Chloro-pyridin-3-yl)-2-methyl-1H-imidazol-4-ylethynyl]-pyridine-2-carbonitrile] | 7.16

Results, then the molecule that gave them:

Row | pKi | Compound
8 | 7.20 | Cc1nc(C#Cc2ccnc(Cl)c2)cn1-c1cncc(F)c1 [Example 6, 3-[4-(2-Chloro-pyridin-4-ylethynyl)-2-methyl-imidazol-1-yl]-5-fluoro-pyridine]
9 | 7.62 | Cc1nc(C#Cc2ccnc(Cl)c2)cn1-c1ccc(Cl)c(Cl)c1 [Example 8, 2-Chloro-4-[1-(3,4-dichloro-phenyl)-2-methyl-1H-imidazol-4-ylethynyl]-pyridine]
10 | 7.60 | Cc1cc(-n2cc(C#Cc3ccnc(Cl)c3)nc2C)ccc1F [Example 18, 2-Chloro-4-[1-(4-fluoro-3-methyl-phenyl)-2-methyl-1H-imidazol-4-ylethynyl]-pyridine]
11 | 7.82 | Cc1ccc(-n2cc(C#Cc3ccnc(Cl)c3)nc2C)cc1 [Example 20, 2-Chloro-4-[1-(4-methyl-phenyl)-2-methyl-1H-imidazol-4-ylethynyl]-pyridine]
12 | 7.59 | COc1ccc(-n2cc(C#Cc3ccnc(Cl)c3)nc2C)cc1 [Example 22, 2-Chloro-4-[1-(4-methoxy-phenyl)-2-methyl-1H-imidazol-4-ylethynyl]-pyridine]
13 | 7.44 | Cc1ccc(-n2cc(C#Cc3ccnc(Cl)c3)nc2C)nc1 [Example 30, 2-[4-(2-Chloro-pyridin-4-ylethynyl)-2-methyl-imidazol-1-yl]-5-methyl-pyridine]
14 | 7.62 | Cc1nc(C#Cc2ccnc(Cl)c2)cn1-c1ccc(C2CC2)nc1 [Example 33, 5-[4-(2-Chloro-pyridin-4-ylethynyl)-2-methyl-imidazol-1-yl]-2-cyclopropyl-pyridine]
